Data published in patent US20260294305A1, “METHOD FOR EX VIVO MEASURING GLOMERULAR FILTRATION RATE IN A SUBJECT” (Assistance Publique - Hôpitaux de Paris, priority 2023, published 2026).
“And” between values parts separate entries of the source, which are not always exact repeats. Equal entries are not always repeated.

Key:
[1] = more specifically by glomerular filtration; cited from earlier work
[2] = GFR measurement with iohexol clearance, chronic kidney disease patients; type: in vivo; settings: mean ± SD, 28 CKD patients
Description: After a 5 mL bolus injection of iohexol (300 mg/L Omnipaque®; GE Healthcare, France), and an equilibration period (time the tracer takes to distribute in the extracellular compartment), blood and urine samples were collected over four to six consecutive clearance periods. We performed six 30-min periods after a 90-min equilibration period until July 2019, then four 40-min periods after a 120-min equilibration. The concentrations of iohexol in serum and urine were determined by high-performance liquid chromatography (HPLC) as previously described (Cavalier E et al. ([12])). Measured GFR (mGFR) was the mean of the four to six clearance-period values calculated as follows: U×V/P, where U is the concentration of iohexol in the urine collected during the period, V is the urinary flow rate during the period, and P is the serum concentration of iohexol at mid period. […] If voiding was irregular or incomplete or in case of urine loss, mGFR was calculated with iohexol plasma clearance determined from the plasma disappearance curve, with Bröchner-Mortensen correction model for the missing early compartment (Bröchner-Mortensen J. A ([15])). […]
Iohexol clearance was measured as previously described in the example 1.

[3] = GFR measurement with iohexol clearance (mGFR), living kidney donor candidates; type: in vivo
Description: (§1) All living kidney donor candidates investigated in Nephrology Department between July 2016 and October 2022, were eligible for inclusion. In accordance with the KDIGO guidelines (Lentine K L et al. ([11])), GFR was measured in all these individuals from iohexol clearance. […] The CT urography had to include 4 polychromatic acquisition phases (unenhanced, arterial, nephrographic, and excretory phases) with a monophasic injection of iomeprol at 350 or 400 mg of iodine per milliliter (Iomeron® 350 or 400, Bracco Imaging, Milano, Italy).
After a 5 mL bolus injection of iohexol (300 mg/L Omnipaque®; GE Healthcare, France), and an equilibration period (time the tracer takes to distribute in the extracellular compartment), blood and urine samples were collected over four to six consecutive clearance periods. We performed six 30-min periods after a 90-min equilibration period until July 2019, then four 40-min periods after a 120-min equilibration. The concentrations of iohexol in serum and urine were determined by high-performance liquid chromatography (HPLC) as previously described (Cavalier E et al. ([12])). Measured GFR (mGFR) was the mean of the four to six clearance-period values calculated as follows: U×V/P, where U is the concentration of iohexol in the urine collected during the period, V is the urinary flow rate during the period, and P is the serum concentration of iohexol at mid period. Given the negative bias of this GFR measurement method (Seegmiller J C et al. ([13]), Stehlé T et al. ([14])), the following correction was used: mGFR=1.15×iohexol urinary clearance+1.3 (Stehlé T et al. ([14])). If voiding was irregular or incomplete or in case of urine loss, mGFR was calculated with iohexol plasma clearance determined from the plasma disappearance curve, with Bröchner-Mortensen correction model for the missing early compartment (Bröchner-Mortensen J. A ([15])).

[4] = after a bolus injection; cited from earlier work
[5] = GFR measurement with iomeprol clearance assessed by CT urography (CT-mGFR), living kidney donor candidates; type: in vivo
Description: This is a cross-sectional study using data from kidney donor candidates who were screened in hospital between July 2016 and October 2022, with both GFR measurement by iohexol clearance, and kidney morphology assessment by CT urogaphy.
as §1
CT-mGFR was assessed by the same U×V/P calculation used to determine the urinary clearance of iohexol: the amount of iomeprol excreted through the urinary system during a given period of time was divided by the mean serum iomeprol concentration during the same period. The blood and urine concentration of iomeprol were assessed by attenuation measurement (Hounsfield Units, HU) in the different areas of interest. The time periods were derived from the acquisition time of the different phases. […] Manual segmentations of bladder, upper urinary tracts and kidneys were performed using the Advantage Windows software (Advantage Window v4.7; GE Healthcare, Buc, France), using different thresholds depending on the CT phase and then manually finalized. For non-contrast and portal venous phase: only a lower limit was set to 0 HU, in order to exclude fat pixels. For excretory phases: a specific threshold was adapted for each patient based on visual analysis in order to reduce extra-urinary pixels as much as possible. Also, the lower threshold used for upper excretory tract was used as the higher threshold for kidney segmentation to avoid overlap in segmentations. The urinary excretion rate of iomeprol between arterial and excretory phases (U×V, expressed as HU/min) was calculated from urinary excretion of iomeprol into the bladder (Uexcr-Bladder), urinary excretion of iomeprol into the upper excretory tract (calyces, pelvis, ureters) (Uexcr-tract), and urinary excretion of iomeprol into the kidney tubules (Uexcr-tubules): U×V=Uexcr-Bladder+Uexcr-tract+Uexcr-tubules. Uexcr-bladder was the volume of the bladder at the excretory phase (Bladder-Volume) multiplied by the mean CT-attenuation of the bladder at the excretory phase (HU-Bladder-excr) minus the CT-attenuation of the urine in bladder at the unenhanced phase (HU-Bladder-unenhanced), then divided by the time period between the excretory phase and the arterial phase (time period): Uexcr-Bladder=Bladder-volume×(HU-Bladder-excr−HU-Bladder-unenhanced)/time period. When the bladder was not included on the unenhanced phase, urine CT-attenuation could be measured on the nephrographic phase, the urine density at the nephrographic phase being slightly higher than at the unenhanced phase, but without clinical consequence on the CT-mGFR calculation. Uexcr-tract was determined in the same way by studying the upper excretory tract (calyces, pelvis, ureters) instead of the bladder. Uexcr-tubules was the volume of both kidneys (Kidney-volumes) multiplied by mean CT-attenuation of kidneys at the excretory phase (HU-Kidney-excr) minus mean CT-attenuation of kidneys at the unenhanced phase (HU-Kidney-unenhanced), then divided by time period: Uexcr-tubules=Kidney-volumes×(HU-Kidney-excr-HU-Kidney-unenhanced)/time period. The denominator of the U×V/P equation, was the calculated serum iomeprol concentration at the midpoint of the period between the arterial and excretory phases. At each phase, the difference between the CT attenuation of the aorta and the one at the unenhanced phase was the surrogate for the serum iomeprol concentration. […]

[6] = cited from earlier work
plasma proteins = settings: cited from earlier work

Compound: CN(CC(O)CO)C(=O)c1c(I)c(NC(=O)C(CO)CO)c(I)c(C(=O)N(C)CC(O)CO)c1I (stereo not shown) [iobitridol]
- Route of elimination [1]: eliminated almost exclusively by the urinary excretion

Compound: CC(=O)N(CC(O)CO)c1c(I)c(C(=O)NCC(O)CO)c(I)c(C(=O)NCC(O)CO)c1I (stereo not shown) [iohexol]
- Iohexol clearance-measured GFR [2]: 46.0 mL/min/1.73 m2 and 46.0 ± 15.8 mL/min/1.73 m2
- mGFR (iohexol clearance), maximum ([3]; max): 140.2 ml/min/1.73 m^2
- mGFR (iohexol clearance) ([3]; mean ± SD, mGFR=1.15×iohexol urinary clearance+1.3): 99.7±19.1 ml/min/1.73 m^2
- mGFR (iohexol clearance), minimum ([3]; min): 59.9 ml/min/1.73 m^2
- mGFR, ml/min, mean ± SD ([3]; study population, Table 1): 99.7 ± 19.1 mL/min

Compound: CN(C(=O)CO)c1c(I)c(C(=O)NCC(O)CO)c(I)c(C(=O)NCC(O)CO)c1I (stereo not shown) [iomeprol]
- Correlation between its clearance and that of inulin [4]: very good correlation
- Extra-renal clearance [4]: negligible
- Plasma concentration decline [4]: declined biexponentially
- Serum iomeprol concentrations assessed at the arterial phase ([5]; example patient, 0 min, aorta attenuation minus unenhanced): 210.2 HU
- Serum iomeprol concentrations assessed at the nephrographic phase ([5]; example patient, 0.77 min, aorta attenuation minus unenhanced): 88.3 HU
- Serum iomeprol concentrations assessed at the excretory phase ([5]; example patient, 9.47 min, aorta attenuation minus unenhanced): 46.8 HU
- Ln (iomeprol mid-period) ([5]; example patient, mid-period between arterial and excretory phases): 4.396
- CT-mGFR, maximum ([5]; max): 174.0 ml/min/1.73 m^2
- Mean CT-mGFR (iomeprol clearance assessed by CT urography) ([5]; mean ± SD, n=75 living kidney donor candidates): 100.9±19.5 ml/min/1.73 m^2
- CT-mGFR, minimum ([5]; min): 60.8 ml/min/1.73 m^2
- Water solubility [6]: hydrosoluble
- Plasma protein binding (plasma proteins): does not bind measurably to plasma proteins

Compound: CC(=O)N(CC(O)CN(C(C)=O)c1c(I)c(C(=O)NCC(O)CO)c(I)c(C(=O)NCC(O)CO)c1I)c1c(I)c(C(=O)NCC(O)CO)c(I)c(C(=O)NCC(O)CO)c1I (stereo not shown) [iodixanol]
- Route of elimination [1]: eliminated almost exclusively by the urinary excretion
